Patent US20110065687A1, “HYDRAZIDE COMPOUNDS AND USES THEREOF” (priority 2007, published 2011)

Experiments:
Format in all cases: cell-based
[1] = system: HCT-116 human colorectal carcinoma cells; assay: Alamar Blue cell proliferation assay, HCT-116; details: 96 h, anti-proliferative effect, about four days with compound, HCT-116 cells, read-out: AB: HCT-116
Experimental: (§1) A representative cell-proliferation assay protocol using Alamar Blue dye (stored at 4° C., use 20 ul per well) is described hereafter.
(§2) a. Split and trypsinize cells.
(§3) b. Count cells using hemocytometer.
(§4) c. Plate 4,000-5,000 cells per well in 100 μl of medium and seed into a 96-well plate according to the following plate layout. Add cell culture medium only to wells B10 to B12. Wells B1 to B9 have cells but no compound added.
(§5) d. Add 100 μl of 2× drug dilution to each well in a concentration shown in the plate layout above. At the same time, add 100 μl of media into the control wells (wells B10 to B12). Total volume is 200 μl /well.
(§6) e. Incubate four (4) days at 37° C., 5% CO2 in a humidified incubator.
(§7) f. Add 20 μl Alamar Blue reagent to each well.
(§8) g. Incubate for four (4) hours at 37° C., 5% CO2 in a humidified incubator.
(§9) h. Record fluorescence at an excitation wavelength of 544 nm and emission wavelength of 590 nm using a microplate reader.
(§10) In the assays, cells are cultured with a test compound for approximately four days, the dye then is added to the cells and fluorescence of […] dye is detected after approximately four hours. Different types of cells can be utilized in the assays (e.g., HCT-116 human colorectal carcinoma cells, PC-3 human prostatic cancer cells and MiaPaca human pancreatic carcinoma cells). Anti-proliferative effects of representative compounds are provided in the Table below (i.e., “AB: HCT-116” and “AB: MiaPaCa” columns).

[2] = system: rRNA synthesis from 45S rDNA; assay: QPCR assay of rRNA synthesis; details: IC50 pertaining to rRNA synthesis, PCR with 5' ETS probe
Experimental: A representative assay for determining whether a compound modulates rRNA production is set forth hereafter. Assays were conducted to determine the effects of compounds on rRNA synthesis from 45S rDNA. Synthesized rRNA was quantified by a polymerase chain reaction (PCR) assay. A primer/probe set was designed using Primer Express software and synthesized by Applied Biosystems. The 5′ ETS Probe utilized had the following sequence (at its 3′ end): 6FAM-TTG ATC CTG CCA GTA GC-MGBNFQ. The primer sequences were as follows:
(§11) Step 1. Reverse transcription of RNA to DNA
(§12) Fluorescence of digested label was detected and quantified. The effect of the compounds on rRNA synthesis were assessed in the assay, and provided in the table hereafter are IC50 values of selected compounds pertaining to rRNA synthesis and cMYC RNA synthesis.

[3] = system: C-myc transcription (cMYC RNA synthesis); assay: QPCR control assay of C-myc transcription; details: IC50 pertaining to cMYC RNA synthesis
Experimental: A control assay that detected effects of the compounds on C-myc transcription also was conducted using a primer/probe set purchased from ABI (TaqMan Gene Expression Assay with assay ID: Hs99999003_m1). The following assay protocol was utilized:
as §11, §12

[4] = system: MiaPaca human pancreatic carcinoma cells; assay: Alamar Blue cell proliferation assay, MiaPaCa; details: MIA PaCa-2, 96 h, anti-proliferative effect, about four days with compound, read-out: AB: MiaPaCa
Experimental: as §1, §2, §3, §4, §5, §6, §7, §8, §9, §10

CN1CCN(NC(=O)c2c(=O)c3ccc(N4CCOCC4)nc3n3c2sc2ccccc23)CC1 [Cmpd 1]
IC50 [1]: 96 nM
IC50 [2]: 148 nM
IC50 [3]: 1190 nM

CN1CCN(NC(=O)c2c(=O)c3ccc(N(C)Cc4cnccn4)nc3n3c2sc2ccccc23)CC1 [Cmpd 2]
IC50 [1]: 249 nM
IC50 [4]: 1480 nM
IC50 [2]: 696 nM

CN1CCN(NC(=O)c2c(=O)c3cc(F)c(N4CCOCC4)nc3n3c2sc2ccccc23)CC1 [Cmpd 3]
IC50 [1]: 265 nM
IC50 [4]: 225 nM
IC50 [2]: 102 nM
IC50 [3]: 6060 nM

CN1CCN(NC(=O)c2c(=O)c3cc(F)c(N(C)Cc4cnccn4)nc3n3c2sc2ccccc23)CC1 [Cmpd 4]
IC50 [1]: 517 nM
IC50 [4]: 173 nM
IC50 [2]: 291 nM
IC50 [3]: 7010 nM

CN1CCN(NC(=O)c2c(=O)c3cc(F)c(NN4CCN(C)CC4)nc3n3c2sc2ccccc23)CC1 [Cmpd 5]
IC50 [1]: 1750 nM
IC50 [4]: 486 nM
IC50 [2]: 632 nM

O=C(NN1CCOCC1)c1c(=O)c2ccc(N3CCOCC3)nc2n2c1sc1ccccc12 [Cmpd 6]
IC50 [1]: 562 nM
IC50 [4]: 549 nM
IC50 [2]: 702 nM

O=C(NN1CCCC1)c1c(=O)c2ccc(N3CCOCC3)nc2n2c1sc1ccccc12 [Cmpd 7]
IC50 [1]: 653 nM
IC50 [4]: 955 nM
IC50 [2]: 714 nM

O=C(NN1CCCCC1)c1c(=O)c2ccc(N3CCOCC3)nc2n2c1sc1ccccc12 [Cmpd 8]
IC50 [1]: ≥ 50000 nM
IC50 [4]: ≥ 50000 nM
IC50 [2]: 458 nM
IC50 [3]: 23600 nM

COC[C@H]1CCCN1NC(=O)c1c(=O)c2ccc(N3CCOCC3)nc2n2c1sc1ccccc12 [Cmpd 9]
IC50 [1]: 1170 nM
IC50 [4]: 596 nM
IC50 [2]: 720 nM

CN(C)NC(=O)c1c(=O)c2ccc(N3CCOCC3)nc2n2c1sc1ccccc12 [Cmpd 10]
IC50 [1]: 523 nM
IC50 [4]: 444 nM
IC50 [2]: 414 nM
IC50 [3]: 8990 nM

CN1CCN(NC(=O)c2c(=O)c3ccc(N4CCCCC4)nc3n3c2sc2ccccc23)CC1 [Cmpd 11]
IC50 [1]: 915 nM
IC50 [4]: 740 nM
IC50 [2]: 3140 nM

CN1CCN(NC(=O)c2c(=O)c3ccc(NCCF)nc3n3c2sc2ccccc23)CC1 [Cmpd 12]
IC50 [1]: 693 nM
IC50 [4]: 1030 nM
IC50 [2]: 1580 nM

CN1CCN(NC(=O)c2c(=O)c3ccc(N4CCC(O)C4)nc3n3c2sc2ccccc23)CC1 (stereo not drawn) [Cmpd 13]
IC50 [1]: 5880 nM
IC50 [4]: 3310 nM
IC50 [2]: 7320 nM

O=C(NN1CCOCC1)c1c(=O)c2cc(F)c(N3CCOCC3)nc2n2c1sc1ccccc12 [Cmpd 14]
IC50 [1]: 690 nM
IC50 [4]: 8090 nM
IC50 [2]: 2240 nM

O=C(NNc1ccccn1)c1c(=O)c2cc(F)c(N3CCOCC3)nc2n2c1sc1ccccc12 [Cmpd 15]
IC50 [1]: 1310 nM
IC50 [4]: 5360 nM
IC50 [2]: 5550 nM

O=C(Nn1cnnc1)c1c(=O)c2cc(F)c(N3CCOCC3)nc2n2c1sc1ccccc12 [Cmpd 16]
IC50 [1]: 292 nM
IC50 [4]: 715 nM
IC50 [2]: 350 nM
IC50 [3]: 14000 nM

O=C(NNC1=NCCN1)c1c(=O)c2cc(F)c(N3CCOCC3)nc2n2c1sc1ccccc12 [Cmpd 17]
IC50 [1]: 1 nM
IC50 [4]: 3 nM
IC50 [2]: 38 nM
IC50 [3]: 1100 nM

COc1ccc(CNc2ccc3c(=O)c(C(=O)NN4CCN(C)CC4)c4sc5ccccc5n4c3n2)cc1 [Cmpd 18]
IC50 [1]: 985 nM
IC50 [4]: 893 nM
IC50 [2]: 1290 nM

CN1CCN(NC(=O)c2c(=O)c3ccc(-c4ccc(CO)cc4)nc3n3c2sc2ccccc23)CC1 [Cmpd 20]
IC50 [1]: 7140 nM
IC50 [4]: ≥ 50000 nM
IC50 [2]: 9710 nM

Cn1c2ccccc2n2c3nc(N4CCOCC4)c(F)cc3c(=O)c(C(=O)NN3CCOCC3)c12 [Cmpd 21]
IC50 [1]: 662 nM
IC50 [4]: 1300 nM

CN(C)NC(=O)c1c(=O)c2cc(F)c(N3CCOCC3)nc2n2c3ccccc3n(C)c12 [Cmpd 22]
IC50 [1]: 1410 nM
IC50 [4]: 2190 nM

CN(C)NC(=O)c1c(=O)c2ccc(N3CCOCC3)nc2n2c1[nH]c1ccccc12 [Cmpd 23]
IC50 [1]: 1640 nM

CN1CCN(NC(=O)c2c(=O)c3ccc(N4CCOCC4)nc3n3c2[nH]c2ccccc23)CC1 [Cmpd 24]
IC50 [1]: 1420 nM
